Assay results from the supplement of paper PMC10307832.

Experiments:
Assay in all cases: relative viability (nuclei count vs DMSO), 5 days (fraction); higher = more cells survive
[1] = compound: C1=CC(=CC=C1NC(=S)NNC2=C(C=C(C=C2[N+](=O)[O-])C(F)(F)F)[N+](=O)[O-])F [Kobe2602] + CS(=O)(=O)N1CCN(Cc2cc3nc(-c4cccc5[nH]ncc45)nc(N4CCOCC4)c3s2)CC1 [Pictilisib] (partner 1 µM)
In short: (§1)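 Lung cancer cell lines in 1536-well plates got either a single drug or a fixed anchor-drug dose together with five library-drug doses (not always all listed) in √10 steps, by pin tool, on the day after seeding. Nuclei were counted after 5 days, and relative viability is the treated-to-vehicle ratio of nuclei counts. Values are medians of duplicate plates.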

[2] = compound: O[C@@H](COc1cccc2ncccc12)CN1CCN([C@@H]2c3ccccc3[C@@H]3[C@H](c4ccccc42)C3(F)F)CC1 [Zosuquidar] + CC(=O)Nc1cccc(-n2c(=O)n(C3CC3)c(=O)c3c(Nc4ccc(I)cc4F)n(C)c(=O)c(C)c32)c1 [Trametinib] (partner 0.02 µM)
In short: as §1

[3] = compound: O[C@@H](COc1cccc2ncccc12)CN1CCN([C@@H]2c3ccccc3[C@@H]3[C@H](c4ccccc42)C3(F)F)CC1 [Zosuquidar] + CC(=O)c1c(C)c2cnc(Nc3ccc(N4CCNCC4)cn3)nc2n(C2CCCC2)c1=O [Palbociclib] (partner 0.5 µM)
In short: as §1

[4] = compound: O[C@@H](COc1cccc2ncccc12)CN1CCN([C@@H]2c3ccccc3[C@@H]3[C@H](c4ccccc42)C3(F)F)CC1 [Zosuquidar] + NC(=O)Nc1cc(-c2cccc(F)c2)sc1C(=O)N[C@H]1CCCNC1 [AZD7762] (partner 0.2 µM)
In short: as §1

Cell Line	relative viability ([1]; first compound 0.2 µM)	relative viability ([1]; first compound 0.6325 µM)	relative viability ([1]; first compound 2 µM)	relative viability ([1]; first compound 6.325 µM)	relative viability ([1]; first compound 20 µM)	relative viability ([2]; first compound 0.01 µM)	relative viability ([2]; first compound 0.03162 µM)	relative viability ([2]; first compound 0.1 µM)	relative viability ([2]; first compound 0.3162 µM)	relative viability ([2]; first compound 1 µM)	relative viability ([3]; first compound 0.01 µM)	relative viability ([3]; first compound 0.03162 µM)	relative viability ([3]; first compound 0.1 µM)	relative viability ([3]; first compound 0.3162 µM)	relative viability ([3]; first compound 1 µM)	relative viability ([4]; first compound 0.01 µM)	relative viability ([4]; first compound 0.03162 µM)	relative viability ([4]; first compound 0.1 µM)	relative viability ([4]; first compound 0.3162 µM)	relative viability ([4]; first compound 1 µM)
HCC-366	0.0894	0.176	0.0839	0.141	0.211	0.324	0.35	0.367	0.46	0.259	0.322	0.402	0.355	0.394	0.338	0.23	0.227	0.285	0.369	0.298
HCC-827	1	0.932	0.898	0.981	1.18	0.539	0.486	0.476	0.535	0.529	0.503	0.497	0.501	0.498	0.491	0.171	0.212	0.148	0.216	0.192
HOP-62	0.72	1.09	0.717	0.783	0.782	0.384	0.404	0.393	0.396	0.37	0.444	0.535	0.444	0.426	0.401	0.619	0.771	0.512	0.802	0.631
IA-LM	0.369	0.306	0.338	0.318	0.317															
LC-2-ad	0.614	0.54	0.459	0.441	0.477	0.91	0.901	0.812	0.92	0.911	0.468	0.465	0.492	0.493	0.486	0.78	0.855	0.883	0.842	0.787
NCI-H520	0.253	0.364	0.255	0.225	0.292	0.71	0.938	0.598	0.798	0.68	0.201	0.195	0.198	0.179	0.208					
NCI-H522						0.81	0.706	0.843	0.723	0.719	1.14	0.869	1.01	1.09	0.908	0.993	0.928	1.05	0.807	0.984
NCI-H596	0.222	0.432	0.395	0.403	0.422	0.762	1	0.857	0.776	0.79						0.974	1.14	0.958	1.25	1.28
NCI-H661	0.461	0.368	0.419	0.353	0.52	0.614	0.549	0.531	0.599	0.546	0.404	0.4	0.415	0.416	0.408					
NCI-H1299	0.862	0.957	0.706	0.71	0.916															
NCI-H1563	0.648	0.697	0.616	0.684	0.653															
